{"source": "ChEMBL document CHEMBL3526058", "about": "“Investigating the enteroenteric recirculation of apixaban, a factor Xa inhibitor: administration of activated charcoal to bile duct-cannulated rats and dogs receiving an intravenous dose and use of drug transporter knockout rats” (Drug Metab Dispos, 2013)", "key": {"[1]": {"experiment": "Cmax in P-gp-knockout Sprague-Dawley rat at 4 mg/kg, po", "type": "ADME, organism-based", "design": "dose 4 mg/kg, route oral", "conditions": "in vivo"}, "[2]": {"experiment": "Cmax in Sprague-Dawley rat at 4 mg/kg, po administered 1 hr post GF-120918 treatment", "type": "ADME, organism-based", "design": "dose 4 mg/kg, route oral", "conditions": "in vivo, with GF-120918"}, "Homo sapiens [3]": {"organism": "Homo sapiens", "experiment": "Plasma clearance in human relative to hepatic blood flow", "type": "ADME, organism-based", "conditions": "in vivo"}, "[4]": {"experiment": "Cmax in beagle dog at 5 mg/kg, po followed by activated charcoal administration 3 hrs post compound dosing", "type": "ADME, organism-based, Canis lupus familiaris", "design": "dose 5 mg/kg, route oral", "conditions": "in vivo"}, "[5]": {"experiment": "AUC (0 to 24 hrs) in beagle dog at 5 mg/kg, po followed by activated charcoal administration 3 hrs post compound dosing", "type": "ADME, organism-based, Canis lupus familiaris", "design": "time < 24 hr, dose 5 mg/kg, route oral", "conditions": "plasma"}, "[6]": {"experiment": "AUC (0 to 24 hrs) in beagle dog at 5 mg/kg, po", "type": "ADME, organism-based, Canis lupus familiaris", "design": "time < 24 hr, dose 5 mg/kg, route oral", "conditions": "plasma"}, "[7]": {"experiment": "Half life in human administered bid orally", "type": "ADME, organism-based", "conditions": "in vivo, po"}, "[8]": {"experiment": "Oral steady-state volume of distribution in BCRP-knockout Sprague-Dawley rat at 4 mg/kg", "type": "ADME, organism-based", "design": "dose 4 mg/kg", "conditions": "in vivo, read-out: Vss/F"}, "[9]": {"experiment": "Oral bioavailability in beagle dog at 5 mg/kg", "type": "ADME, organism-based, Canis lupus familiaris", "conditions": "in vivo"}, "[10]": {"experiment": "Mean residence time in P-gp-knockout Sprague-Dawley rat at 4 mg/kg, po", "type": "ADME, organism-based", "design": "dose 4 mg/kg, route oral", "conditions": "in vivo"}, "[11]": {"experiment": "Plasma concentration in beagle dog at 5 mg/kg, po followed by activated charcoal administration 0.25 hrs post compound dosing measured at 8 hrs", "type": "ADME, organism-based, Canis lupus familiaris", "design": "dose 5 mg/kg, route oral"}, "[12]": {"experiment": "Oral steady-state volume of distribution in beagle dog at 5 mg/kg followed by activated charcoal administration 1 hr post compound dosing", "type": "ADME, organism-based, Canis lupus familiaris", "design": "dose 5 mg/kg", "conditions": "in vivo, read-out: Vss/F"}, "[13]": {"experiment": "Oral bioavailability in P-gp-knockout Sprague-Dawley rat at 4 mg/kg", "type": "ADME, organism-based", "conditions": "in vivo"}, "[14]": {"experiment": "Mean residence time in beagle dog at 5 mg/kg, po", "type": "ADME, organism-based, Canis lupus familiaris", "design": "dose 5 mg/kg, route oral", "conditions": "in vivo"}, "[15]": {"experiment": "Half life in beagle dog at 5 mg/kg, po followed by activated charcoal administration 0.25 hrs post compound dosing", "type": "ADME, organism-based, Canis lupus familiaris", "design": "dose 5 mg/kg, route oral", "conditions": "in vivo"}, "[16]": {"experiment": "Mean residence time in BCRP-knockout Sprague-Dawley rat at 4 mg/kg, po", "type": "ADME, organism-based", "design": "dose 4 mg/kg, route oral", "conditions": "in vivo"}, "[17]": {"experiment": "Apparent oral clearance in BCRP-knockout Sprague-Dawley rat at 4 mg/kg, po", "type": "ADME, organism-based", "design": "dose 4 mg/kg, route oral", "conditions": "in vivo"}, "[18]": {"experiment": "Mean residence time in wild-type Sprague-Dawley rat at 4 mg/kg, po", "type": "ADME, organism-based", "design": "dose 4 mg/kg, route oral", "conditions": "in vivo"}, "[19]": {"experiment": "AUC (0 to 24 hrs) in beagle dog at 5 mg/kg, po followed by activated charcoal administration 0.25 hrs post compound dosing", "type": "ADME, organism-based, Canis lupus familiaris", "design": "time < 24 hr, dose 5 mg/kg, route oral", "conditions": "plasma"}, "[20]": {"experiment": "Oral bioavailability in beagle dog at 5 mg/kg followed by activated charcoal administration 3 hrs post compound dosing", "type": "ADME, organism-based, Canis lupus familiaris", "conditions": "in vivo"}, "[21]": {"experiment": "Plasma concentration in beagle dog at 5 mg/kg, po at 8 hrs", "type": "ADME, organism-based, Canis lupus familiaris", "design": "dose 5 mg/kg, route oral"}, "[22]": {"experiment": "Oral steady-state volume of distribution in Sprague-Dawley rat at 4 mg/kg administered 1 hr post GF-120918 treatment", "type": "ADME, organism-based", "design": "dose 4 mg/kg", "conditions": "in vivo, with GF-120918, read-out: Vss/F"}, "Homo sapiens [23]": {"system": "Homo sapiens", "experiment": "Volume of distribution in human administered bid orally", "type": "ADME, organism-based", "conditions": "in vivo, po"}, "[24]": {"experiment": "Oral bioavailability in BCRP-knockout Sprague-Dawley rat at 4 mg/kg", "type": "ADME, organism-based", "conditions": "in vivo"}, "[25]": {"experiment": "Mean residence time in beagle dog at 5 mg/kg, po followed by activated charcoal administration 1 hr post compound dosing", "type": "ADME, organism-based, Canis lupus familiaris", "design": "dose 5 mg/kg, route oral", "conditions": "in vivo"}, "Rattus norvegicus": {"organism": "Rattus norvegicus", "experiment": "Plasma clearance in rat relative to hepatic blood flow", "type": "ADME, organism-based", "conditions": "in vivo"}, "[26]": {"experiment": "Oral bioavailability in wild-type Sprague-Dawley rat at 4 mg/kg", "type": "ADME, organism-based", "conditions": "in vivo"}, "[27]": {"experiment": "Oral steady-state volume of distribution in beagle dog at 5 mg/kg followed by activated charcoal administration 3 hrs post compound dosing", "type": "ADME, organism-based, Canis lupus familiaris", "design": "dose 5 mg/kg", "conditions": "in vivo, read-out: Vss/F"}, "[28]": {"experiment": "AUC (0 to infinity) in BCRP-knockout Sprague-Dawley rat at 4 mg/kg, po", "type": "ADME, organism-based", "design": "time infinity, dose 4 mg/kg, route oral", "conditions": "plasma"}, "[29]": {"experiment": "Oral bioavailability in beagle dog at 5 mg/kg followed by activated charcoal administration 1 hr post compound dosing", "type": "ADME, organism-based, Canis lupus familiaris", "conditions": "in vivo"}, "[30]": {"experiment": "Apparent oral clearance in Sprague-Dawley rat at 4 mg/kg, po administered 1 hr post GF-120918 treatment", "type": "ADME, organism-based", "design": "dose 4 mg/kg, route oral", "conditions": "in vivo, with GF-120918"}, "[31]": {"experiment": "AUC (0 to infinity) in wild-type Sprague-Dawley rat at 4 mg/kg, po", "type": "ADME, organism-based", "design": "time infinity, dose 4 mg/kg, route oral", "conditions": "plasma"}}, "data": [{"molecule": "COc1ccc(-n2nc(C(N)=O)c3c2C(=O)N(c2ccc(N4CCCCC4=O)cc2)CC3)cc1", "values": [{"measurement": "Cmax", "setting": "[1]", "value": 940, "unit": "ng/mL"}, {"measurement": "Cmax", "setting": "[2]", "value": 2870, "unit": "ng/mL"}, {"measurement": "CL", "setting": "Homo sapiens [3]", "value": "< 5", "unit": "%"}, {"measurement": "Cmax", "setting": "[4]", "value": 8070, "unit": "ng/mL"}, {"measurement": "AUC(0-t) at 24 h", "setting": "[5]", "value": 49200, "unit": "ng·h/mL"}, {"measurement": "AUC(0-t) at 24 h", "setting": "[6]", "value": 78600, "unit": "ng·h/mL"}, {"measurement": "half-life", "setting": "[7]", "value": 12, "unit": "h"}, {"measurement": "Vd/F", "setting": "[8]", "value": 1.1, "unit": "L/kg"}, {"measurement": "bioavailability", "setting": "[9]", "value": 93, "unit": "%"}, {"measurement": "MRT", "setting": "[10]", "value": 3.8, "unit": "h"}, {"measurement": "concentration at 8 h", "setting": "[11]", "value": 2820, "unit": "ng/mL"}, {"measurement": "Vd/F", "setting": "[12]", "value": 0.5, "unit": "L/kg"}, {"measurement": "bioavailability", "setting": "[13]", "value": 71, "unit": "%"}, {"measurement": "MRT", "setting": "[14]", "value": 8.5, "unit": "h"}, {"measurement": "half-life", "setting": "[15]", "value": 4.2, "unit": "h"}, {"measurement": "MRT", "setting": "[16]", "value": 2.9, "unit": "h"}, {"measurement": "CL/F", "setting": "[17]", "value": 6.67, "unit": "mL/min/kg"}, {"measurement": "MRT", "setting": "[18]", "value": 3.8, "unit": "h"}, {"measurement": "AUC(0-t) at 24 h", "setting": "[19]", "value": 59500, "unit": "ng·h/mL"}, {"measurement": "bioavailability", "setting": "[20]", "value": 77, "unit": "%"}, {"measurement": "concentration at 8 h", "setting": "[21]", "value": 5230, "unit": "ng/mL"}, {"measurement": "Vd/F", "setting": "[22]", "value": 0.7, "unit": "L/kg"}, {"measurement": "Vd", "setting": "Homo sapiens [23]", "value": 0.3, "unit": "L/kg"}, {"measurement": "bioavailability", "setting": "[24]", "value": 122, "unit": "%"}, {"measurement": "MRT", "setting": "[25]", "value": 5.9, "unit": "h"}, {"measurement": "CL", "setting": "Rattus norvegicus", "value": "< 5", "unit": "%"}, {"measurement": "bioavailability", "setting": "[26]", "value": 49, "unit": "%"}, {"measurement": "Vd/F", "setting": "[27]", "value": 0.5, "unit": "L/kg"}, {"measurement": "AUC(0-inf)", "setting": "[28]", "value": 5710, "unit": "ng·h/mL"}, {"measurement": "bioavailability", "setting": "[29]", "value": 99, "unit": "%"}, {"measurement": "CL/F", "setting": "[30]", "value": 5, "unit": "mL/min/kg"}, {"measurement": "AUC(0-inf)", "setting": "[31]", "value": 1390, "unit": "ng·h/mL"}]}]}
